The numbers were not newly measured in patent publication US20150209327A1, “METHODS FOR THE TREATMENT OF OBESITY USING APREMILAST” (Celgene Corporation, priority 2014, published 2015), which cites them from elsewhere.

Structures are written as SMILES.

For this data set the following is noted: treatment of COPD; cited from earlier work.

Turning to `O=C(Nc1c(Cl)cncc1Cl)c1ccc(OC(F)F)c(OCC2CC2)c1` [roflumilast], the “weight change as a side effect” value was “Weight decrease was observed”.
